Laboratory results taken from patent US8871934B2, “Fluorene compound and pharmaceutical use thereof” (Japan Tobacco Inc., priority 2008, dated 2014).
pIC50: −log10 of the molar value. Where two headings read alike, the source gives them in different places.

Biological target: human PDHK2 (hPDHK2) (Homo sapiens (Human), UniProt Q15119)
Test: Inhibitory action of PDHK activity in vitro (kinase reaction, residual PDH activity measured)
Format: biochemical
[1] = PDHK inhibitory activity, class symbol of IC50
[2] = read-out: PDHK inhibitory activity IC50
[3] = PDHK inhibitory activity (class symbol)
[4] = class symbol of IC50, read-out: PDHK inhibitory activity

Row | Structure (SMILES) | pIC50 [1] | pIC50 [2] | further results
1 | OC1(C(F)(F)F)c2ccccc2-c2c(-c3ccccn3)cccc21 (stereo not drawn) [compound 134] | < 6.00 | < 5.00 | 
2 | Cn1cc(-c2cc(OCC(=O)O)cc3c2-c2ccccc2C3(O)C(F)(F)F)cn1 (stereo not drawn) [compound 358] | > 7.00 | 7.47 | 
3 | CN(C)C(=O)c1cc(-c2cncnc2)c2c(c1)C(O)(C(F)(F)F)c1ccccc1-2 (stereo not drawn) [compound 368] | 6.00 to 7.00 | 6.74 | 
4 | CCc1cc(-c2cnn(C(CO)CO)c2)c2c(c1)C(O)(C(F)(F)F)c1ccccc1-2 (stereo not drawn) [compound 653] |  | 7.43 | pIC50 [3]: > 7.00
5 | CN(C)C(=O)c1ccc(-c2ccc3c(c2)C(O)(C(F)(F)F)c2ccccc2-3)cc1Cl (stereo not drawn) [compound 241] | > 7.00 | 7.01 | 
6 | CN(CCO)C(=O)c1cc(-c2cnn(C)c2)c2c(c1)C(O)(C(F)(F)F)c1ccccc1-2 (stereo not drawn) [compound 346] | 6.00 to 7.00 | 6.70 | 
7 | CN(CCO)C(=O)c1cc(-c2cncnc2)c2c(c1)C(O)(C(F)(F)F)c1ccccc1-2 (stereo not drawn) [compound 372] | 6.00 to 7.00 | 6.25 | 
8 | O=C(O)COc1ccc2c(c1)C(O)(C(F)(F)F)c1ccccc1-2 (stereo not drawn) [compound 287] | < 6.00 | < 5.00 | 
9 | OC1(C(F)(F)F)c2ccccc2-c2ccc(OCc3ccccc3)cc21 (stereo not drawn) [compound 262] | < 6.00 | 5.86 | 
10 | CCCOc1ccc2c(c1)C(O)(C(F)(F)F)c1ccccc1-2 (stereo not drawn) [compound 265] | < 6.00 | 5.90 | 
11 | COc1ccc2c(c1)C(O)(C(F)(F)F)c1ccccc1-2 (stereo not drawn) [compound 37] | < 6.00 | 5.40 | 
12 | OC1(C(F)(F)F)c2ccccc2-c2ccc(-c3cccs3)cc21 (stereo not drawn) [compound 144] | < 6.00 | 5.95 | 
13 | OC1(C(F)(F)F)c2ccccc2-c2ncccc21 (stereo not drawn) [compound 1] | < 6.00 | 5.66 | 
14 | CC(C)NC(=O)c1ccc2c(c1)-c1ccccc1C2(O)C(F)(F)F (stereo not drawn) [compound 73] | < 6.00 | 5.32 | 
15 | OCCCCOc1cc(-c2cnn(CCO)c2)c2c(c1)C(O)(C(F)(F)F)c1ccccc1-2 (single isomer, unassigned) [compound 624] |  | 7.85 | pIC50 [3]: > 7.00
16 | CN(C)CCOc1ccc2c(c1)C(O)(C(F)(F)F)c1ccccc1-2 (stereo not drawn) [compound 322] | < 6.00 | 5.60 | 
17 | CN(C)C(=O)C1CCCN1C(=O)c1ccc2c(c1)C(O)(C(F)(F)F)c1ccccc1-2 (stereo not drawn) [compound 178] | < 6.00 | < 5.00 | 
18 | CN(CCOc1cc(-c2cncnc2)c2c(c1)C(O)(C(F)(F)F)c1ccccc1-2)C(=O)CO (stereo not drawn) [compound 424] | > 7.00 | 7.64 | 
19 | OCCn1cc(-c2cc(Cl)cc3c2-c2ccccc2C3(O)C(F)(F)F)cn1 (stereo not drawn) [compound 460] | > 7.00 | 7.52 | 
20 | CC(=O)NCCOc1cc(-c2cnn(C)c2)c2c(c1)C(O)(C(F)(F)F)c1ccccc1-2 (stereo not drawn) [compound 435] | > 7.00 | 7.41 | 
21 | CN(CCOc1cnc2c(c1)C(O)(C(F)(F)F)c1ccccc1-2)C(=O)CO (stereo not drawn) [compound 399] | 6.00 to 7.00 | 6.83 | 

Row | Structure (SMILES) | pIC50 [1] | pIC50 [2] | further results
22 | OC1(C(F)(F)F)c2ccccc2-c2ccc(N3CCCC3)cc21 (stereo not drawn) [compound 160] | < 6.00 | 5.60 | 
23 | CCCc1ccc2c(c1)C(O)(C(F)(F)F)c1ccccc1-2 (stereo not drawn) [compound 70] | < 6.00 | 5.66 | 
24 | OCC(CO)(CO)n1cc(-c2cc(F)cc3c2-c2ccccc2C3(O)C(F)(F)F)cn1 (single isomer, unassigned; (+)) [compound 703, (+)-2-[4-(2-fluoro-9-hydroxy-9-trifluoromethyl-9H-fluoren-4-yl)-pyrazol-1-yl]-2-hydroxymethyl-propane-1,3-diol] |  | 7.70 | pIC50 [3]: > 7.00
25 | CC(C)COc1ccc2c(c1)C(O)(C(F)(F)F)c1ccccc1-2 (stereo not drawn) [compound 264] | < 6.00 | 5.93 | 
26 | COC(=O)c1cc(Br)c2c(c1)C(O)(C(F)(F)F)c1ccccc1-2 (single isomer, unassigned) [compound 473] | > 7.00 | 7.05 | 
27 | Cc1cc(-c2cnn(CCCC(=O)O)c2)c2c(c1)C(O)(C(F)(F)F)c1ccccc1-2 (single isomer, unassigned; (+)) [compound 539, (+)-4-[4-(9-hydroxy-2-methyl-9-trifluoromethyl-9H-fluoren-4-yl)-pyrazol-1-yl]-butyric acid] | > 7.00 | 7.57 | 
28 | CNCc1ccc2c(c1)C(O)(C(F)(F)F)c1ccccc1-2 (stereo not drawn) [compound 417] |  | < 6.00 | pIC50 [4]: < 6.00
29 | OC1(C(F)(F)F)c2ccccc2-c2c(-c3cnn(C45CC6CC(CC(C6)C4)C5)c3)cccc21 (stereo not drawn) [compound 522] | > 7.00 | 7.21 | 
30 | NC(=O)CCn1cc(-c2cccc3c2-c2ccccc2C3(O)C(F)(F)F)cn1 (stereo not drawn) [compound 486] | > 7.00 | 7.26 | 
31 | OC1(C(F)(F)F)c2ccccc2-c2ncc(Cl)cc21 (stereo not drawn) [compound 36] | 6.00 to 7.00 | 6.20 | 
32 | Cc1ccncc1-c1cccc2c1-c1ccccc1C2(O)C(F)(F)F (stereo not drawn) [compound 204] | < 6.00 | < 5.00 | 
33 | Oc1cccc2c1-c1ccccc1C2(O)C(F)(F)F (stereo not drawn) [compound 63] | < 6.00 | 5.07 | 
34 | CNC(=O)C1CCCN1C(=O)c1ccc2c(c1)C(O)(C(F)(F)F)c1ccccc1-2 (stereo not drawn) [compound 177] | < 6.00 | 5.04 | 
35 | OC1(C(F)(F)F)c2ccccc2-c2c(-c3ncco3)cccc21 (stereo not drawn) [compound 131] | < 6.00 | < 5.00 | 
36 | CC(=O)Nc1ccc2c(c1)C(O)(C(F)(F)F)c1ccccc1-2 (stereo not drawn) [compound 22] | < 6.00 | 4.78 | 
37 | CC(C)OC(=O)N1CCN(c2ccc3c(c2)C(O)(C(F)(F)F)c2ccccc2-3)CC1 (stereo not drawn) [compound 212] | 6.00 to 7.00 | 6.16 | 
38 | CCn1cc(-c2ccc3c(c2)C(O)(C(F)(F)F)c2cccc(CO)c2-3)cn1 (stereo not drawn) [compound 597] |  | < 6.00 | pIC50 [4]: < 6.00
39 | CNCCCOc1ccc2c(c1)C(O)(C(F)(F)F)c1ccccc1-2 (stereo not drawn) [compound 332] | 6.00 to 7.00 | 6.04 | 
40 | OC1(C(F)(F)F)c2ccccc2-c2ccc(-c3cnco3)cc21 (stereo not drawn) [compound 245] | 6.00 to 7.00 | 6.72 | 
41 | CCOC(=O)c1ccc(-c2cc(Cl)c3c(c2)C(O)(C(F)(F)F)c2ccccc2-3)cc1 (stereo not drawn) [compound 233] | 6.00 to 7.00 | 6.85 | 
42 | Cc1ccc2c(c1)C(O)(C(F)(F)F)c1cccc(C)c1-2 (stereo not drawn) [compound 17] | < 6.00 | 4.86 | 

Row | Structure (SMILES) | pIC50 [1] | pIC50 [2] | further results
43 | CN(CCOc1ccc2c(c1)C(O)(C(F)(F)F)c1ccccc1-2)C(=O)OC(C)(C)C (stereo not drawn) [compound 324] | 6.00 to 7.00 | 6.69 | 
44 | OC1(C(F)(F)F)c2ccccc2-c2c(-c3ccccc3)cccc21 (stereo not drawn) [compound 126] | < 6.00 | < 5.00 | 
45 | OC1(C(F)(F)F)c2ccccc2-c2ccc(C3CCCCC3)cc21 (stereo not drawn) [compound 169] | < 6.00 | 5.13 | 
46 | CN1C(=O)CC[C@@H]1COc1ccc2c(c1)C(O)(C(F)(F)F)c1ccccc1-2 (stereo partly drawn) [compound 447] | 6.00 to 7.00 | 6.69 | 
47 | Cn1cc(-c2cc(OCCC34CC5CC(CC(O)(C5)C3)C4)cc3c2-c2ccccc2C3(O)C(F)(F)F)cn1 (single isomer, unassigned) [compound 540] | > 7.00 | 7.80 | 
48 | Cn1cc(-c2cc(OCCCC(=O)O)cc3c2-c2ccccc2C3(O)C(F)(F)F)cn1 (single isomer, unassigned) [compound 504, 4-[9-hydroxy-4-(1-methyl-1H-pyrazol-4-yl)-9-trifluoromethyl-9H-fluoren-2-yloxy]-butyric acid] | > 7.00 | 7.72 | 
49 | Cc1cc(C(=O)NCCCCO)cc2c1-c1ccccc1C2(O)C(F)(F)F (stereo not drawn) [compound 338] |  | < 6.00 | pIC50 [4]: < 6.00
50 | O=C(O)C1CCN1C(=O)c1ccc2c(c1)C(O)(C(F)(F)F)c1ccccc1-2 (stereo not drawn) [compound 314] | < 6.00 | < 5.00 | 
51 | Cn1cc(-c2ccc3c(c2)C(O)(C(F)(F)F)c2ccccc2-3)cn1 (stereo not drawn) [compound 377] | 6.00 to 7.00 | 6.72 | 
52 | OC1(C(F)(F)F)c2ccccc2-c2c(Cl)cc(F)cc21 (single isomer, unassigned; (+)) [Compound No. 526, (+)-4-chloro-2-fluoro-9-trifluoromethyl-9H-fluoren-9-ol] |  | 6.40 | pIC50 (read-out: PDHK inhibitory activity, class symbol of IC50): 6.00 to 7.00
53 | Cn1cc(-c2cc(C(=O)N3CC(O)C3)cc3c2-c2ccccc2C3(O)C(F)(F)F)cn1 (stereo not drawn) [compound 373] | > 7.00 | 7.31 | 
54 | CCCNC(=O)c1ccc2c(c1)C(O)(C(F)(F)F)c1ccccc1-2 (stereo not drawn) [compound 316] | < 6.00 | 5.35 | 
55 | OC1(C(F)(F)F)c2ccccc2-c2ccc(OCc3cccs3)cc21 (stereo not drawn) [compound 261] | < 6.00 | 5.85 | 
56 | COC(=O)c1cc(Cl)cc2c1-c1ccccc1C2(O)C(F)(F)F (single isomer, unassigned) [compound 617] |  | 7.08 | pIC50 [3]: > 7.00
57 | CC(=O)N(C)C1CCN(C(=O)c2ccc3c(c2)C(O)(C(F)(F)F)c2ccccc2-3)C1 (stereo not drawn) [compound 246] | 6.00 to 7.00 | 6.09 | 
58 | CC(C)(C)OC(=O)N1CCN(c2ccc3c(c2)C(O)(C(F)(F)F)c2ccccc2-3)CC1 (stereo not drawn) [compound 163] | 6.00 to 7.00 | 6.63 | 
59 | O=C(O)c1cccc2c1-c1ccccc1C2(O)C(F)(F)F (stereo not drawn) [compound 32] | < 6.00 | < 4.00 | 
60 | CN1CCN(c2ccc3c(c2)C(O)(C(F)(F)F)c2ccccc2-3)CC1 (stereo not drawn) [compound 162] | < 6.00 | 5.54 | 
61 | CC(C)(C)OC(=O)c1ccc(-c2cc(-c3cccnc3)c3c(c2)C(O)(C(F)(F)F)c2ccccc2-3)cc1 (stereo not drawn) [compound 341] | > 7.00 | 7.10 | 
62 | O=C(c1cc(-c2cncnc2)c2c(c1)C(O)(C(F)(F)F)c1ccccc1-2)N1CCC1 (stereo not drawn) [compound 369] | > 7.00 | 7.09 | 
63 | NC(=O)Cn1cc(-c2ccc3c(c2)C(O)(C(F)(F)F)c2cccc(CO)c2-3)cn1 (stereo not drawn) [compound 609] |  | < 6.00 | pIC50 (read-out: PDHK inhibitory activity (class symbol)): < 6.00
